Results reported in PubChem BioAssay AID268 (DTP/NCI, 2004).
Several values for one entry are separate records, joined by “and”; a condition that tells them apart may be missing. Equal values may be shown once.

Test system: CD2F1 mice, P1798 lymphosarcoma sc, tumor weight T/C
Test: NCI In Vivo Anticancer Drug Screen. Data for tumor model P1798 Lymphosarcoma (subcutaneous) in CD2F1 (CDF1) mice
Details: endpoint: mean tumor weight, higher = larger tumour
Method: The antitumor activity of compounds was measured in mice bearing transplantable tumors. Survival or tumor size were measured and the results are expressed as the measurement made in the treated group (T) divided by the measurement made in the vehicle treated control group (C). The tumor model used in this assay is P1798 Lymphosarcoma (subcutaneous) in CD2F1 (CDF1) mice

[1] = dose: 20.0 mg/kg/injection, schedule: Q01DX010 (ip), vehicle: saline
[2] = dose: 0.5 mg/kg/injection, schedule: Q01DX010 (ip), vehicle: saline
[3] = dose: 1.0 mg/kg/injection, schedule: Q01DX010 (ip), vehicle: saline
[4] = dose: 2.0 mg/kg/injection, schedule: Q01DX010 (ip), vehicle: saline
[5] = dose: 1.25 mg/kg/injection, schedule: Q01DX010 (ip), vehicle: saline
[6] = dose: 2.5 mg/kg/injection, schedule: Q01DX010 (ip), vehicle: saline
[7] = dose: 10.0 mg/kg/injection, schedule: Q01DX010 (ip), vehicle: saline

Compound: COc1ccc2cc3[n+](cc2c1OC)CCc1cc2c(cc1-3)OCO2
- T/C (dose: 12.0 mg/kg/injection, schedule: Q01DX011 (ip), vehicle: saline): 75 % of control

Compound: O=C1NC2C(NC(=O)N2Cl)N1Cl (stereo not given)
- T/C [1]: 80 % of control
- T/C (dose: 40.0 mg/kg/injection, schedule: Q01DX010 (ip), vehicle: saline): 90 % of control
- T/C (dose: 80.0 mg/kg/injection, schedule: Q01DX010 (ip), vehicle: saline): 76 % of control

Compound: CN(C)c1nc(N(C)C)nc(N(C)C)n1
- T/C (dose: 18.8 mg/kg/injection, schedule: Q01DX010 (ip), vehicle: saline): 104 % of control and 87 % of control
- T/C (dose: 75.0 mg/kg/injection, schedule: Q01DX010 (ip), vehicle: saline): 68 % of control and 82 % of control
- T/C (dose: 150.0 mg/kg/injection, schedule: Q01DX010 (ip), vehicle: saline): 26 % of control

Compound: CC(=O)[C@@]12OC(C)(C)O[C@@H]1C[C@H]1[C@@H]3C[C@H](C)C4=CC(=O)CC[C@]4(C)[C@H]3CC[C@@]12C
- T/C (dose: 12.5 mg/kg/injection, schedule: Q01DX005 (sc), vehicle: steriod suspending solution): 72 % of control
- T/C (dose: 12.5 mg/kg/injection, schedule: Q01DX010 (sc), vehicle: steriod suspending solution): 64 % of control
- T/C (dose: 25.0 mg/kg/injection, schedule: Q01DX005 (sc), vehicle: steriod suspending solution): 61 % of control
- T/C (dose: 25.0 mg/kg/injection, schedule: Q02DX010 (sc), vehicle: steriod suspending solution): 95 % of control
- T/C (dose: 25.0 mg/kg/injection, schedule: Q03DX004 (sc), vehicle: steriod suspending solution): 56 % of control
- T/C (dose: 50.0 mg/kg/injection, schedule: Q01DX005 (sc), vehicle: steriod suspending solution): 38 % of control
- T/C (dose: 50.0 mg/kg/injection, schedule: Q02DX010 (sc), vehicle: steriod suspending solution): 88 % of control
- T/C (dose: 50.0 mg/kg/injection, schedule: Q03DX004 (sc), vehicle: steriod suspending solution): 59 % of control
- T/C (dose: 100.0 mg/kg/injection, schedule: Q01DX005 (sc), vehicle: steriod suspending solution): 13 % of control
- T/C (dose: 100.0 mg/kg/injection, schedule: Q02DX010 (sc), vehicle: steriod suspending solution): 93 % of control
- T/C (dose: 100.0 mg/kg/injection, schedule: Q03DX004 (sc), vehicle: steriod suspending solution): 16 % of control

Compound: Nc1nc(F)nc2c1ncn2C1OC(CO)C(O)C1O (stereo not given)
- T/C [2]: 76 % of control
- T/C [3]: 94 % of control
- T/C [4]: 73 % of control
- T/C (dose: 3.0 mg/kg/injection, schedule: Q01DX010 (ip), vehicle: saline): 62 % of control
- T/C (dose: 4.0 mg/kg/injection, schedule: Q01DX010 (ip), vehicle: saline): 35 % of control

Compound: CN1CC[C@]23c4c5ccc(O)c4O[C@H]2C(=O)CC[C@H]3[C@H]1C5
- T/C (dose: 8.0 mg/kg/injection, schedule: Q01DX010 (ip), vehicle: saline): 94 % of control and 80 % of control
- T/C (dose: 16.0 mg/kg/injection, schedule: Q01DX010 (ip), vehicle: saline): 76 % of control and 79 % of control
- T/C (dose: 32.0 mg/kg/injection, schedule: Q01DX010 (ip), vehicle: saline): 74 % of control and 85 % of control
- T/C (dose: 64.0 mg/kg/injection, schedule: Q01DX010 (ip), vehicle: saline): 93 % of control and 70 % of control

Compound: CC(=O)NCCCCCCNCCCCCCNC(C)=O
- T/C (dose: 50.0 mg/kg/injection, schedule: Q01DX010 (ip), vehicle: saline): 99 % of control
- T/C (dose: 100.0 mg/kg/injection, schedule: Q01DX010 (ip), vehicle: saline): 92 % of control
- T/C (dose: 200.0 mg/kg/injection, schedule: Q01DX010 (ip), vehicle: saline): 102 % of control
- T/C (dose: 400.0 mg/kg/injection, schedule: Q01DX010 (ip), vehicle: saline): 80 % of control

Compound: O=C(NCCCC(NC(=O)OCc1ccccc1)C(=O)NCCCNCCCCNCCCNC(=O)C(CCCNC(=O)OCc1ccccc1)NC(=O)OCc1ccccc1)OCc1ccccc1 (stereo not given)
- T/C (dose: 0.63 mg/kg/injection, schedule: Q01DX010 (ip), vehicle: saline): 156 % of control
- T/C [5]: 91 % of control
- T/C [6]: 111 % of control

Compound: NC(Cc1c[nH]c2ccc(N(CCCl)CCCl)cc12)C(=O)O (stereo not given)
- T/C (dose: 0.25 mg/kg/injection, schedule: Q01DX010 (ip), vehicle: saline): 106 % of control
- T/C [2]: 97 % of control
- T/C [3]: 40 % of control
- T/C [4]: 13 % of control

Compound: CC[n+]1c(-c2ccccc2)c2cc(N)ccc2c2ccc(N)cc21
- T/C [5]: 108 % of control
- T/C [6]: 97 % of control
- T/C [7]: 4 % of control and 10 % of control

Compound: Cn1cnc([N+](=O)[O-])c1Sc1nc(N)nc2nc[nH]c12
- T/C [6]: 69 % of control
- T/C (dose: 5.0 mg/kg/injection, schedule: Q01DX010 (ip), vehicle: saline): 75 % of control
- T/C [7]: 57 % of control
- T/C [1]: 54 % of control
